From the CheMixHub viscosity set

Test: xn = mol fraction of the nth substance listed

COC(=O)c1ccccc1 + CCCCO
viscosity [mPa·s], 100 kPa
Details | x1 = 0.05 | x1 = 0.1 | x1 = 0.2 | x1 = 0.3 | x1 = 0.45 | x1 = 0.6 | x1 = 0.749 | x1 = 0.849 | x1 = 0.899 | x1 = 0.95
293.2 K | 2.62 | 2.397 | 2.097 | 1.922 | 1.787 | 1.746 | 1.777 | 1.836 | 1.885 | 1.95
298.2 K | 2.308 | 2.119 | 1.866 | 1.719 | 1.606 | 1.574 | 1.604 | 1.659 | 1.703 | 1.761
303.2 K | 2.041 | 1.882 | 1.668 | 1.545 | 1.453 | 1.429 | 1.459 | 1.509 | 1.549 | 1.6
308.2 K | 1.813 | 1.678 | 1.5 | 1.398 | 1.32 | 1.303 | 1.333 | 1.381 | 1.417 | 1.464
313.2 K | 1.616 | 1.505 | 1.354 | 1.267 | 1.204 | 1.193 | 1.224 | 1.269 | 1.303 | 1.345

CCCCOCCO + OCCO
101 kPa
Details | viscosity [mPa·s]
293.15 K, x1 = 0.0517 | 19.96
293.15 K, x1 = 0.099 | 18.69
293.15 K, x1 = 0.2024 | 15.74
293.15 K, x1 = 0.2993 | 13.1
293.15 K, x1 = 0.4009 | 10.68
293.15 K, x1 = 0.4475 | 9.72
293.15 K, x1 = 0.5022 | 8.702
293.15 K, x1 = 0.5447 | 7.996
293.15 K, x1 = 0.6011 | 7.158
293.15 K, x1 = 0.7009 | 5.905
293.15 K, x1 = 0.8048 | 4.826
293.15 K, x1 = 0.8992 | 3.996
293.15 K, x1 = 0.9413 | 3.661
298.15 K, x1 = 0.0515 | 16.18
298.15 K, x1 = 0.1025 | 15.09
298.15 K, x1 = 0.1973 | 12.9
298.15 K, x1 = 0.2977 | 10.71
298.15 K, x1 = 0.3863 | 9.036
298.15 K, x1 = 0.4425 | 8.124
298.15 K, x1 = 0.4743 | 7.652
298.15 K, x1 = 0.5523 | 6.625
298.15 K, x1 = 0.6012 | 6.061
298.15 K, x1 = 0.6986 | 5.082
298.15 K, x1 = 0.783 | 4.349
298.15 K, x1 = 0.8985 | 3.469
298.15 K, x1 = 0.9474 | 3.145
303.15 K, x1 = 0.0582 | 12.73
303.15 K, x1 = 0.098 | 12.07
303.15 K, x1 = 0.2036 | 10.21
303.15 K, x1 = 0.2996 | 8.621
303.15 K, x1 = 0.4 | 7.191
303.15 K, x1 = 0.4503 | 6.57
303.15 K, x1 = 0.5015 | 5.989
303.15 K, x1 = 0.543 | 5.563
303.15 K, x1 = 0.6003 | 5.022
303.15 K, x1 = 0.703 | 4.185
303.15 K, x1 = 0.8036 | 3.495
303.15 K, x1 = 0.8935 | 2.979
303.15 K, x1 = 0.95 | 2.691

CC(C)OCCO + CCCNCCC
viscosity [mPa·s], 101.33 kPa
Details | 298.15 K | 308.15 K | 318.15 K
x1 = 0.0484 | 0.544 | 0.476 | 0.41
x1 = 0.0855 | 0.581 | 0.505 | 0.435
x1 = 0.1225 | 0.625 | 0.534 | 0.458
x1 = 0.1899 | 0.704 | 0.599 | 0.502
x1 = 0.2514 | 0.798 | 0.671 | 0.555
x1 = 0.3234 | 0.918 | 0.76 | 0.617
x1 = 0.3933 | 1.046 | 0.855 | 0.685
x1 = 0.4465 | 1.154 | 0.941 | 0.747
x1 = 0.482 | 1.237 | 1.001 | 0.785
x1 = 0.5205 | 1.313 | 1.058 | 0.83
x1 = 0.6318 | 1.571 | 1.242 | 0.959
x1 = 0.73 | 1.776 | 1.381 | 1.076
x1 = 0.8358 | 1.959 | 1.516 | 1.187
x1 = 0.919 | 2.057 | 1.595 | 1.268
x1 = 0.9596 | 2.087 | 1.618 | 1.292
